The target of the assay is human NaV subtype, like NaV 1.7 (Homo sapiens, UniProt Q15858). The assay is described as follows: E-VIPR optical membrane potential assay with electrical stimulation. Format: cell-based. As to conditions: active against one or more sodium channels; Table 3 does not name the assay or NaV subtype; read-out: Binned Activity Data (IC50).

For 57 molecules, IC50 results are on record in patent publication US8916565B2, “Pyrrolopyrazine-spirocyclic piperidine amides as modulators of ion channels” (priority 2011, dated 2014).

A value given as a limit tells only on which side of the number the result lay.

Usually IC50 stands for the concentration needed to halve the response being measured.

Sequence of human NaV subtype, like NaV 1.7 (Q15858 whole entry): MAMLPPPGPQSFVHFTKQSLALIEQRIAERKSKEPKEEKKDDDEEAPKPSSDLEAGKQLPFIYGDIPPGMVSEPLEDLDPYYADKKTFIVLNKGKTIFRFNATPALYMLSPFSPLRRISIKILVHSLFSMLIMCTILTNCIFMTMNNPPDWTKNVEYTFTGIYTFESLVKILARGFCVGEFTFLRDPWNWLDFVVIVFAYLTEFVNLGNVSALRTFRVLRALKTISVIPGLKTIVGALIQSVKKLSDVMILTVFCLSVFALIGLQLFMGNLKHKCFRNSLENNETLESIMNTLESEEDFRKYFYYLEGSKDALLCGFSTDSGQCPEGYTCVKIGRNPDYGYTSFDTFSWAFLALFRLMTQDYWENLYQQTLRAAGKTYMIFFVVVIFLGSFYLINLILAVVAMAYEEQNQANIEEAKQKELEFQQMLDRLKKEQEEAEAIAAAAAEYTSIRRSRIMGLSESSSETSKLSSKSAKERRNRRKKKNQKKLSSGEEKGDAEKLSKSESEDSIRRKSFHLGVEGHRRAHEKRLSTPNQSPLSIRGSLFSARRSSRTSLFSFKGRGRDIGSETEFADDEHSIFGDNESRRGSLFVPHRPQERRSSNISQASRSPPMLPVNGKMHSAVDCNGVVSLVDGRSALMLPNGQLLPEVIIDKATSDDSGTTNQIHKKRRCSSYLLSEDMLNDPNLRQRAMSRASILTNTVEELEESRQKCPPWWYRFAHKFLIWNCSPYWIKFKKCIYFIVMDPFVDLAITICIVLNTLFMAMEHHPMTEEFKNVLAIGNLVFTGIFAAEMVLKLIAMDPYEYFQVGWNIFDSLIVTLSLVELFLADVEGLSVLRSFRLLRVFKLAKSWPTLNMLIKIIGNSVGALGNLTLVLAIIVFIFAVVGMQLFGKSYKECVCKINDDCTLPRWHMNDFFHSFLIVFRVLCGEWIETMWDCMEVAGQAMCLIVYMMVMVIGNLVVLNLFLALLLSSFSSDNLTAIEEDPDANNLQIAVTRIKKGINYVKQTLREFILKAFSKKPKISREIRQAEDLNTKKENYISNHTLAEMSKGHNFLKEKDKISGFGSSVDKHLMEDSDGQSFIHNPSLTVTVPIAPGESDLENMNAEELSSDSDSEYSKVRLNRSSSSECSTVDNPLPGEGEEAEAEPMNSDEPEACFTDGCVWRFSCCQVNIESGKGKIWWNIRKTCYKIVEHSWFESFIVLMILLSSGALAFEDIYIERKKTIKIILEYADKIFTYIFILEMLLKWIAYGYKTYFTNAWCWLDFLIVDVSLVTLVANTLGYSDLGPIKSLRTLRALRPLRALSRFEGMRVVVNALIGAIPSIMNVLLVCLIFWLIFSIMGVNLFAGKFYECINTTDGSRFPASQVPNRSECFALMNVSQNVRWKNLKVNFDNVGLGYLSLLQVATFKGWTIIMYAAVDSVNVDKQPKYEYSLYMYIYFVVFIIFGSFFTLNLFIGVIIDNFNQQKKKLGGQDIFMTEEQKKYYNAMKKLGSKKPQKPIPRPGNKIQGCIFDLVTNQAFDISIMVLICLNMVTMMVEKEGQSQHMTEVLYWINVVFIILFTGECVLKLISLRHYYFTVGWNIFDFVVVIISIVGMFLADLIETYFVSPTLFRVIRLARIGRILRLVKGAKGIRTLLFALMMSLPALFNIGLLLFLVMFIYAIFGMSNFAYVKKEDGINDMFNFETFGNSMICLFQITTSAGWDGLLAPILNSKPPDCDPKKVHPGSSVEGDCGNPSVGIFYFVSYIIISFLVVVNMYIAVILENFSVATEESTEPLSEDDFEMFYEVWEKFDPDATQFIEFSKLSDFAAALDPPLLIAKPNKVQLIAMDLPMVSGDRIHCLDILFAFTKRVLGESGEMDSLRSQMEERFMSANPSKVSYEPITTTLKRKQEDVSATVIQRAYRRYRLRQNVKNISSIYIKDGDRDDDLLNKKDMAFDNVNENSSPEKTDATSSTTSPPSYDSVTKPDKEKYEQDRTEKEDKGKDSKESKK

For `CC(C)Oc1ccc(C(=O)N2CCC3(CC2)c2ccc(C(=O)C(F)(F)F)n2C[C@H](C)N3C)c(F)c1` [Compound 695], the IC50 was no more than 2000 nM. As to `CC(C)Oc1ccc(C(=O)N2CCC3(CC2)c2ccc(Cl)n2CCN3C)cc1` [Compound 696], the IC50 was greater than 5000 nM. For `COc1ccc(C(=O)N2CCC3(CC2)c2ccc(C(=O)C(F)(F)F)n2CCN3C)cc1Cl` [Compound 697] the value was no more than 2000 nM; for `CCCOc1ccc(C(=O)N2CCC3(CC2)c2ccc(Cl)n2CCN3C)cc1OC` [Compound 698], 2000 to 5000 nM; for `CCCCOc1ccc(C(=O)N2CCC3(CC2)c2ccc(C(C)=O)n2CCN3C)cc1OC` [Compound 699], no more than 2000 nM. With `C[C@H]1Cn2c(C(=O)C(F)(F)F)ccc2C2(CCN(C(=O)c3ccc(O)c(Cl)c3)CC2)N1C` [Compound 700], the concentration for half-maximal inhibition (IC50) is no more than 2000 nM.

For `COCCN1CCn2c(C(F)(F)F)ccc2C12CCN(C(=O)c1ccc(C(C)(C)O)cc1)CC2` [Compound 701], the IC50 is no more than 2000 nM. With `C[C@H]1Cn2c(C(=O)C(F)(F)F)ccc2C2(CCN(C(=O)c3ccc(S(=O)(=O)C4CC4)cc3)CC2)N1C` [Compound 702], the IC50 is no more than 2000 nM.

For the molecule `CC(=O)c1ccc2n1CCN(C)C21CCN(C(=O)c2ccc(C(C)(C)O)c(F)c2)CC1` [Compound 703], the IC50 was greater than 5000 nM.

As for `CCC(=O)c1ccc2n1CCN(C)C21CCN(C(=O)c2ccc(OC(C)C)c(C)c2)CC1` [Compound 704], the IC50 was no more than 2000 nM. For `COc1cc(C(=O)N2CCC3(CC2)NC(C)(C)Cn2c(C(=O)C(F)(F)F)ccc23)ccc1C(C)(C)C` [Compound 705] the value was no more than 2000 nM; for `COc1cc(C(=O)N2CCC3(CC2)c2ccc(C(F)(F)F)n2CCN3CC(F)F)ccc1OC(C)C` [Compound 706], no more than 2000 nM; for `CC1(C)Cn2c(C(=O)C(F)(F)F)ccc2C2(CCN(C(=O)c3ccc(-c4ccccc4)cn3)CC2)N1` [Compound 707], no more than 2000 nM. For `O=C(c1ccc(S(=O)(=O)NC2CC2)cc1)N1CCC2(CC1)c1ccc(C(F)(F)F)n1CCN2C1CC1` [Compound 708] the value was no more than 2000 nM.

Regarding `CC(C)Oc1ccc(C(=O)N2CCC3(CC2)c2ccc(C(F)(F)F)n2CCN3C)cc1CO` [Compound 709], the IC50 was no more than 2000 nM.

Regarding `Cc1cc(C(=O)N2CCC3(CC2)c2ccc(Cl)n2CCN3C)ccc1OC(C)C` [Compound 710], the IC50 is no more than 2000 nM. With `Cc1cc(C(=O)N2CCC3(CC2)c2ccc(C(=O)C(C)(C)C)n2CCN3C)ccc1OCCCO` [Compound 711] the figure was no more than 2000 nM; with `CC(C)COc1ccc(C(=O)N2CCC3(CC2)c2ccc(C(=O)C(F)(F)F)n2CCN3C)nc1` [Compound 712], no more than 2000 nM; with `COc1ccc(C(=O)N2CCC3(CC2)c2c(Cl)cc(C(F)(F)F)n2CCN3C)cc1C` [Compound 713], 2000 to 5000 nM. For `Cc1c(O)cccc1C(=O)N1CCC2(CC1)c1ccc(C(=O)C(F)(F)F)n1CCN2C` [Compound 714] the value was greater than 5000 nM; for `Cc1cc(C(=O)N2CCC3(CC2)NCCn2c(C(F)(F)F)ccc23)ccc1C(C)(C)O` [Compound 715], no more than 2000 nM. For `CNS(=O)(=O)c1ccc(C(=O)N2CCC3(CC2)c2ccc(C(F)(F)F)n2CCN3C)cc1` [Compound 716] the value was no more than 2000 nM. `CN1CCn2c(C(=O)C(F)(F)F)ccc2C12CCN(C(=O)c1ccc(-c3ccccc3)c(F)c1)CC2` [Compound 717]: the half-inhibitory concentration (IC50) is no more than 2000 nM. For `CC(C)Nc1ncccc1C(=O)N1CCC2(CC1)c1ccc(C(F)(F)F)n1CCN2C` [Compound 718] the value was 2000 to 5000 nM; for `COc1cc(C(=O)N2CCC3(CC2)c2ccc(C(F)(F)F)n2C(CO)CN3C)ccc1OC(C)C` (stereo not drawn) [Compound 719], 2000 to 5000 nM. With `CN1CCn2c(C(=O)C(F)(F)F)ccc2C12CCN(C(=O)c1ccc(F)c(O)c1)CC2` [Compound 720] the figure was greater than 5000 nM; with `CC(C)Oc1ccc(C(=O)N2CCC3(CC2)NC(C)(C)Cn2c(C(F)(F)F)ccc23)c(F)c1` [Compound 721], no more than 2000 nM. Turning to `COc1cc(C(=O)N2CCC3(CC2)c2ccc(C(F)(F)C(F)(F)F)n2CCN3C)ccc1OC(C)C` [Compound 722], the IC50 was no more than 2000 nM. Regarding `Cc1cc(C(=O)N2CCC3(CC2)c2ccc(C(F)(F)F)n2CCN3CC(=O)N(C)C)ccc1OC(C)C` [Compound 723], the IC50 is no more than 2000 nM. With `CN1CCn2c(C(=O)C(F)(F)F)ccc2C12CCN(C(=O)c1ccc(-c3ccccc3F)cn1)CC2` [Compound 725] the figure was greater than 5000 nM; with `COc1ccc(C(=O)N2CCC3(CC2)c2ccc(C(=O)C(F)(F)F)n2C[C@H](C)N3C)cc1C(F)(F)F` [Compound 726], no more than 2000 nM. Consider `CC[C@@H](C)Oc1ccc(C(=O)N2CCC3(CC2)c2ccc(C(F)(F)F)n2CCN3C)cc1OC` [Compound 727], for which the IC50 was no more than 2000 nM. In the case of `COc1ccc(-c2ccc(C(=O)N3CCC4(CC3)c3ccc(C(=O)C(F)(F)F)n3CCN4C)cc2C)cc1` [Compound 728], the IC50 is no more than 2000 nM. For `CCOC(=O)N1CCn2c(C#N)ccc2C12CCN(C(=O)c1ccc(OC(C)C)c(C)n1)CC2` [Compound 729] the value was no more than 2000 nM; for `CCOc1cc(C(=O)N2CCC3(CC2)c2ccc(C(F)(F)F)n2CCN3C)ccc1OC` [Compound 730], no more than 2000 nM; for `Cc1ccnc2c(C(=O)N3CCC4(CC3)c3ccc(C(F)(F)F)n3CCN4C)cnn12` [Compound 731], 2000 to 5000 nM. Turning to `CC(=O)c1ccc2n1CCN(C)C21CCN(C(=O)c2ccc(OC(C)C)c(C(F)(F)F)c2)CC1` [Compound 732], the half-inhibitory concentration (IC50) is no more than 2000 nM. For the molecule `CN1CCn2c(C(=O)C(F)(F)F)ccc2C12CCN(C(=O)c1ccc(O)c(C(F)(F)F)c1)CC2` [Compound 733], the IC50 was no more than 2000 nM.

For the molecule `CC(=O)c1ccc2n1CCN(C)C21CCN(C(=O)c2ccc(OC(C)C)c(F)c2)CC1` [Compound 734], the IC50 is greater than 5000 nM.

On to `COc1ccc(C(=O)N2CCC3(CC2)c2ccc(C(=O)C(C)C)n2CCN3C)cc1C(F)(F)F` [Compound 735], for which the IC50 is no more than 2000 nM. Turning to `COCCOc1ccc(C(=O)N2CCC3(CC2)c2c(F)cc(C(F)(F)F)n2CCN3C)cc1` [Compound 736], the IC50 is no more than 2000 nM. For `CCNc1cc(C)nc2c(C(=O)N3CCC4(CC3)c3ccc(C(F)(F)F)n3CCN4C)cnn12` [Compound 737], the half-inhibitory concentration (IC50) is no more than 2000 nM. With `COc1ccc(C(=O)N2CCC3(CC2)NC(C)(C)Cn2c(C(=O)C(F)(F)F)ccc23)c(C)c1` [Compound 738] the figure was no more than 2000 nM.

Regarding `CC(=O)c1ccc2n1CCN(C)C21CCN(C(=O)c2ccc(C(OCC(F)(F)F)OCC(F)(F)F)c(Cl)c2)CC1` [Compound 739], the IC50 was greater than 5000 nM. For `CCCCc1ccc(C(=O)N2CCC3(CC2)c2ccc(C(=O)C(F)(F)F)n2CCN3C)cc1` [Compound 740] the value was no more than 2000 nM. In the case of `CCOC(=O)N1CCn2c(C(F)(F)F)ccc2C12CCN(C(=O)c1ccc(OC(C)C)c(OC)c1)CC2` [Compound 741], the IC50 was no more than 2000 nM. On to `COc1cc(C(=O)N2CCC3(CC2)c2c(C#N)cc(C(F)(F)F)n2CCN3C)ccc1OC(C)C` [Compound 742], for which the IC50 was 2000 to 5000 nM. Consider `CN1CCn2c(ccc2C(F)(F)C(F)(F)F)C12CCN(C(=O)c1ccc(C(C)(C)O)cc1)CC2` [Compound 743], for which the concentration for half-maximal inhibition (IC50) is no more than 2000 nM. For `CC(C)Oc1ccc(C(=O)N2CCC3(CC2)c2ccc(C(=O)C4CC4)n2CCN3C)cc1F` [Compound 744] the value was no more than 2000 nM; for `CC[C@@H](C)Oc1ccc(C(=O)N2CCC3(CC2)NCCn2c(C(F)(F)F)ccc23)cc1OC` [Compound 745], no more than 2000 nM; for `COc1ccc(C(=O)N2CCC3(CC2)c2ccc(C(=O)C(F)(F)F)n2CCN3C)nc1C` [Compound 746], no more than 2000 nM. As to `COc1ccc(C(=O)N2CCC3(CC2)c2ccc(C(=O)C(F)(F)F)n2C(C)CN3C)cc1Cl` (stereo not drawn) [Compound 747], the IC50 is no more than 2000 nM. For `CN1CC(C)(C)n2c(C(=O)C(F)(F)F)ccc2C12CCN(C(=O)c1ccc(C(C)(C)O)c(F)c1)CC2` [Compound 748] the value was greater than 5000 nM; for `CC(C)Oc1ccc(C(=O)N2CCC3(CC2)c2ccc(C(F)(F)F)n2C[C@@H](C)N3C)c(F)c1` [Compound 749], 2000 to 5000 nM.

Consider `Cc1cc(C(=O)N2CCC3(CC2)c2ccc(Cl)n2CCN3C)ccc1S(=O)(=O)C(C)C` [Compound 750], for which the IC50 was greater than 5000 nM. For `C=C(C)Oc1ccc(C(=O)N2CCC3(CC2)c2ccc(C(F)(F)F)n2CCN3C)cc1OC` [Compound 751] the value was no more than 2000 nM; for `CN1CCn2c(C(=O)C(F)(F)F)ccc2C12CCN(C(=O)c1ccc(S(=O)(=O)N(C)c3nccs3)cc1)CC2` [Compound 752], no more than 2000 nM.
